“And” between values parts separate entries of the source, which are not always exact repeats. Identical values can stand only once. Counter-ions that a name gives are not always drawn. Like-named read-outs stand apart in the source and are kept apart here.
What was measured:
[1] = molecular target: MCL-1 (Homo sapiens, UniProt Q07820); assay: Protein-protein interaction assay MCL-1/Noxa BH3 peptide (MCL-1 assay), TR-FRET; format: binding; settings: MBP-MCL-1 / Noxa BH3-derived peptide, median
Outline: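 IC50 came from a 4-parameter fit of the normalized 665/620 nm TR-FRET ratio (anti-MBP Eu-cryptate/streptavidin-XL665). Compounds (0.1 nM–20 μM, duplicates) were preincubated 10 min at 22 °C with 1 nM MBP-MCL-1 in pH 7 Tris/NaCl/KF buffer, then read after 1 h at 22 °C plus overnight at 4 °C.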

[2] = test system: SUDHL5; assay: Induction of caspase-3/7 activity (Caspase-Glo 3/7), SUDHL5; format: cell-based; settings: Homo sapiens, SU-DHL-5, 3 h, caspase-3/7 induction, SUDHL5 cells, 3 h treatment; median
Outline: (§1)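 DLBCL lines SUDHL5 and SUDHL10 treated with compounds for 3 h at 37 °C; caspase-3/7 activity read by Caspase-Glo 3/7 luminescence. Medium-only background subtracted; EC50 fitted with bottom fixed at 1 and top fixed at the reference compound's maximal induction.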

[3] = test system: SUDHL10; assay: Induction of caspase-3/7 activity (Caspase-Glo 3/7), SUDHL10; format: cell-based; settings: Homo sapiens, SU-DHL10, 3 h, caspase-3/7 induction, SUDHL10 cells, 3 h treatment; median
Outline: as §1

[4] = test system: SUDHL5; assay: Anti-proliferative effect (CellTiter-Glo, 72 h), SUDHL5; format: cell-based; settings: Homo sapiens, SU-DHL-5, 72 h, SUDHL5 cells, antiproliferation, 72 h incubation, median, read-out: Antiproli SUDHL5 [M] (median)
Outline: (§2)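 Cells plated and incubated with compounds for 72 h at 37 °C, with a parallel day 0 reference plate for time-zero signal. Viability read by CellTiter-Glo luminescence after 10 min, measured identically on the day 0 and 72 h plates.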

[5] = test system: SUDHL10; assay: Anti-proliferative effect (CellTiter-Glo, 72 h), SUDHL10; format: cell-based; settings: Homo sapiens, SU-DHL10, 72 h, SUDHL10 cells, antiproliferation, 72 h incubation, median, read-out: Antiproli SUDHL10 [M] (median)
Outline: as §2

[6] = test system: OPM2; assay: Anti-proliferative effect (CellTiter-Glo, 72 h), OPM2; format: cell-based; settings: Homo sapiens, OPM-2, 72 h, OPM2 cells, median, read-out: IC50 antiproliferation assay OPM2 [M] (median)
Outline: as §2

[7] = test system: A2780; assay: Anti-proliferative effect (CellTiter-Glo, 72 h), A2780; format: cell-based; settings: A2780 cells, median, read-out: IC50 antiproliferation assay A2780 [M] (median)
Outline: as §2

[8] = test system: SUDHL5; assay: Induction of cytotoxicity (CellTiter-Glo, 5 h), SUDHL5; settings: Homo sapiens, SU-DHL-5, 5 h, read-out: Cytotox SUDHL5 [M] (median), SUDHL5 cells, cytotoxicity induction, CellTiter-Glo, 5 h incubation, median
[9] = test system: SUDHL10; assay: Induction of cytotoxicity (CellTiter-Glo, 5 h), SUDHL10
[10] = Homo sapiens, SU-DHL10, 5 h, read-out: Cytotox SUDHL10 [M] (median), SUDHL10 cells, cytotoxicity induction, CellTiter-Glo, 5 h incubation, median

Sequence of MCL-1 (Q07820 whole entry): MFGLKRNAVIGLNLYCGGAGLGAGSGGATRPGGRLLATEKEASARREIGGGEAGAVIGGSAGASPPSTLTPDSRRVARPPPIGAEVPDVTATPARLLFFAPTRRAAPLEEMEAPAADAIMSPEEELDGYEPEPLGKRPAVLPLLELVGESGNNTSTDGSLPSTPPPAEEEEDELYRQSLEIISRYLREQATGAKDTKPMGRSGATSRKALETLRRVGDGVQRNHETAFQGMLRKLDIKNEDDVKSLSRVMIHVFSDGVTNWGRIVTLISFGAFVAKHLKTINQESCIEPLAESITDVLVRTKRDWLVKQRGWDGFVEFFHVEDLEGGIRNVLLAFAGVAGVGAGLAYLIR

| IC50 [1] | EC50 [2] | EC50 [3] | IC50 [4] | IC50 [5] | IC50 ([7]; Homo sapiens, A2780, 72 h) | IC50 [7] | Structure (SMILES) | IC50 [6] | IC50 [8] | IC50 [9, 10] | IC50 ([9]; read-out: Cytotox SUDHL10 [M] (median), SUDHL10 cells, cytotoxicity induction, CellTiter-Glo, 5 h incubation, median) |
| --- | --- | --- | --- | --- | --- | --- | --- | --- | --- | --- | --- |
| 0.0988 µM | 19.9 µM | 29.4 µM | 1.2e-05 M | 7.4e-06 M | 1.21e-05 M |  | COC1(c2ccc(OCc3nn(C)c4c3-c3cccc5c(CCCOc6cccc7ccccc67)c(C(=O)O)n(c35)CC=CCOC4)cc2)CCOCC1 (racemic) [Example 1-64, (rac)-(E/Z)-3-{[4-(4-methoxytetrahydro-2H-pyran-4-yl)phenoxy]methyl}-1-methyl-7-[3-(naphthalen-1-yloxy)propyl]-1,10,13,15-tetrahydropyrazolo[4′,3′:9,10][1,6]oxazacycloundecino[8,7,6-hi]indole-8-carboxylic Acid] | 2.15e-05 M | 2.65e-05 M | > 3.3e-05 M | 3.12e-05 M and 2.47e-05 M |
| 0.0118 µM | > 33 µM | > 33 µM | > 3.3e-05 M | > 3.3e-05 M | > 3.3e-05 M |  | CC(C)OCc1nn(C)c2c1-c1cccc3c(CCCOc4cccc5c4CCCC5)c(C(=O)O)n(c13)CCCCOC2 (racemic) [Example 1-69, (rac)-1-methyl-3-[(propan-2-yloxy)methyl]-7-[3-(5,6,7,8-tetrahydronaphthalen-1-yloxy)propyl]-1,10,11,12,13,15-hexahydropyrazolo[4′,3′:9,10][1,6]oxazacycloundecino[8,7,6-hi]indole-8-carboxylic Acid] | > 3.3e-05 M | 2.71e-05 M | > 3.3e-05 M |  |
| 0.00713 µM | 6.83 µM | 11.9 µM | 3.68e-06 M | 9.04e-06 M | 1.82e-05 M |  | CC(C)OCc1nn(C)c2c1-c1cccc3c(CCCOc4cccc5ccccc45)c(C(=O)O)n(c13)CCCCN(C)C2 (racemic) [Example 1-73, (rac)-1,14-dimethyl-7-[3-(naphthalen-1-yloxy)propyl]-3-[(propan-2-yloxy)methyl]-10,11,12,13,14,15-hexahydro-1H-pyrazolo[3′,4′:8,9][1,6]diazacycloundecino[10,11,1-hi]indole-8-carboxylic Acid] | 1.17e-05 M | 7e-06 M | 1.53e-05 M |  |
| 0.0173 µM | 23.9 µM | > 33 µM | > 3.3e-05 M | 1.44e-05 M | 2.05e-05 M |  | CN1CCCn2c(C(=O)O)c(CCCOc3cccc4ccccc34)c3cccc(c32)-c2cnn(C)c2C1 (racemic) [Example 1-96, (rac)-7,9-dimethyl-1-[3-(naphthalen-1-yloxy)propyl]-4,5,6,7,8,9-hexahydropyrazolo[3′,4′:7,8][1,5]diazecino[9,10,1-hi]indole-2-carboxylic Acid] | > 3.3e-05 M | 1.84e-05 M | 2.95e-05 M |  |
| 0.00436 µM | 2.66 µM | 8.04 µM | 5.79e-06 M | 5.07e-06 M | 9.61e-06 M |  | Cn1nc(COc2ccc(N3CCN(CCC(C)(C)O)CC3)cc2)c2c1COCCCCn1c(C(=O)O)c(CCCOc3cccc4ccccc34)c3cccc-2c31 (racemic) [Example 1-121, (rac)-3-({4-[4-(3-hydroxy-3-methylbutyl)piperazin-1-yl]phenoxy}methyl)-1-methyl-7-[3-(naphthalen-1-yloxy)propyl]-1,10,11,12,13,15-hexahydropyrazolo[4′,3′:9,10][1,6]oxazacycloundecino[8,7,6-hi]indole-8-carboxylic Acid Ammonium Salt] | 8.33e-06 M | 3.07e-06 M | 6.21e-06 M |  |
| 0.00632 µM | 9.89 µM | 17.8 µM | 3.62e-06 M | 8.05e-06 M | 2.25e-05 M |  | Cc1cc(OCCCc2c(C(=O)O)n3c4c(cccc24)-c2c(C)nn(C)c2COCCCC3)cc(C)c1Cl (racemic) [Example 009, (rac)-7-[3-(4-chloro-3,5-dimethylphenoxy)propyl]-1,3-dimethyl-1,10,11,12,13,15-hexahydropyrazolo[4′,3′:9,10][1,6]oxazacycloundecino[8,7,6-hi]indole-8-carboxylic Acid] | 2.1e-05 M | 1.11e-05 M | 2.04e-05 M |  |
| 0.00453 µM | 4.43 µM | 9.64 µM | 2.32e-06 M | 7.88e-06 M | > 3.3e-05 M |  | Cc1nn(C)c2c1-c1cccc3c(CCCOc4cccc5cc(F)ccc45)c(C(=O)O)n(c13)CCCCOC2 (racemic) [Example 018, (rac)-7-{3-[(6-fluoronaphthalen-1-yl)oxy]propyl}-1,3-dimethyl-1,10,11,12,13,15-hexahydropyrazolo[4′,3′:9,10][1,6]oxazacycloundecino[8,7,6-hi]indole-8-carboxylic Acid] | 9.67e-06 M | 3.77e-06 M | 9.04e-06 M |  |
| 0.011 µM | 13.4 µM | > 33 µM | 2.4e-05 M | 5.25e-06 M | > 3.3e-05 M | 2.52e-05 M | Cc1nn(C)c2c1-c1cccc3c(CCCOc4ccc(F)c5ccccc45)c(C(=O)O)n(c13)CCCCOC2 (racemic) [Example 021, (rac)-7-{3-[(4-fluoronaphthalen-1-yl)oxy]propyl}-1,3-dimethyl-1,10,11,12,13,15-hexahydropyrazolo[4′,3′:9,10][1,6]oxazacycloundecino[8,7,6-hi]indole-8-carboxylic Acid] | > 3.3e-05 M | 1.82e-05 M | > 3.3e-05 M |  |
| 0.028 µM | 29.9 µM | > 33 µM | 2.15e-06 M | 1.3e-05 M | 7.41e-06 M |  | COCCn1nc2c(c1C)-c1cccc3c(CCCOc4cccc5ccccc45)c(C(=O)O)n(c13)CCCN(C)C2 (racemic) [Example 052, (rac)-10-(2-methoxyethyl)-7,11-dimethyl-1-[3-(naphthalen-1-yloxy)propyl]-4,5,6,7,8,10-hexahydropyrazolo[3′,4′:7,8][1,5]diazecino[9,10,1-hi]indole-2-carboxylic Acid] | 3.07e-05 M | 2.68e-05 M | 2.97e-05 M |  |
| 0.00341 µM | 2.51 µM | 5.67 µM | 1.47e-06 M | 7.88e-06 M | > 3.3e-05 M |  | Cc1c2c(nn1CCN1CCOCC1)COCCCCn1c(C(=O)O)c(CCCOc3cccc4ccccc34)c3cccc-2c31 (racemic) [Example 053, (rac)-3-methyl-2-[2-(morpholin-4-yl)ethyl]-7-[3-(naphthalen-1-yloxy)propyl]-2,10,11,12,13,15-hexahydropyrazolo[4′,3′:9,10][1,6]oxazacycloundecino[8,7,6-hi]indole-8-carboxylic Acid] | 1.11e-05 M | 3e-06 M | 7.75e-06 M |  |
| 0.0239 µM | 15.9 µM | 27.7 µM | 6.96e-06 M | 1.99e-05 M | 2.91e-05 M |  | Cc1c2c(nn1CCN1CCOCC1)CN(C)CCCn1c(C(=O)O)c(CCCOc3cccc4ccccc34)c3cccc-2c31 (racemic) [Example 059, (rac)-7,11-dimethyl-10-[2-(morpholin-4-yl)ethyl]-1-[3-(naphthalen-1-yloxy)propyl]-4,5,67,8,10-hexahydropyrazolo[3′,4′:7,8][1,5]diazecino[9,10,1-hi]indole-2-carboxylic Acid] | 2.52e-05 M | 2.54e-05 M | 1.9e-05 M |  |

From US10981932B2, “Macrocyclic indole derivatives” (Bayer Aktiengesellschaft, priority 2016, dated 2021)
